Results reported in ChEMBL document CHEMBL1201862, “PubChem BioAssay data set” (2004).
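Tested at 5 concentrations; 48 h exposure; 96-well plates; endpoints linearly interpolated, else capped at highest concentration. GI50: concentration for 50% inhibition of growth.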 The source made the active and inactive calls. No stated cut-off is given here; in the data, active = GI50 up to about 1.1 µM and inactive = higher.

How the values were obtained:
Experiment in all cases: inhibition of tumour cell growth, NCI panel, 48 h
[1] = test system: OVCAR-3
[2] = test system: OVCAR-4
[3] = test system: HOP-92
[4] = test system: SK-MEL-28
[5] = test system: BT-549
[6] = test system: TK-10
[7] = test system: KM12
[8] = test system: CAKI-1
[9] = test system: M14
[10] = test system: UO-31
[11] = test system: SF-268
[12] = test system: HOP-62
[13] = test system: DU-145
[14] = test system: COLO 205
[15] = test system: Hs-578T
[16] = test system: MDA-N
[17] = test system: SNB-75
[18] = test system: SF-539
[19] = test system: MDA-MB-231

Compound	GI50 [1]	GI50 [2]	GI50 [3]	GI50 [4]	GI50 [5]	GI50 [6]	GI50 [7]	GI50 [8]	GI50 [9]	GI50 [10]	GI50 [11]	GI50 [12]	GI50 [13]	GI50 [14]	GI50 [15]	GI50 [16]	GI50 [17]	GI50 [18]	GI50 [19]
CC12CCC(C/C1=N\NC(N)=O)C2(C)C (stereo not given)	> 100 µM (inactive)	> 100 µM (inactive)	> 100 µM (inactive)	> 100 µM (inactive)	> 100 µM (inactive)	> 100 µM (inactive)	> 100 µM (inactive)	> 100 µM (inactive)	> 100 µM (inactive)	> 100 µM (inactive)	> 100 µM (inactive)	> 100 µM (inactive)	> 100 µM (inactive)	> 100 µM (inactive)	> 100 µM (inactive)	> 100 µM (inactive)	> 100 µM (inactive)	–	–
CN(C)C1(c2cc3ccccc3s2)CCCCC1	48.6 µM (inactive)	47.2 µM (inactive)	1.79 µM (inactive)	–	64.9 µM (inactive)	47.2 µM (inactive)	36.5 µM (inactive)	61.5 µM (inactive)	17.5 µM (inactive)	30.9 µM (inactive)	18.8 µM (inactive)	58.1 µM (inactive)	54.8 µM (inactive)	26.4 µM (inactive)	–	32.2 µM (inactive)	32.6 µM (inactive)	50.1 µM (inactive)	65.6 µM (inactive)
COc1cccc(C(=O)O[C@H]2[C@@H]3[C@]4(OC(C)=O)CO[C@@H]4C[C@H](O)[C@@]3(C)C(=O)[C@H](OC(C)=O)C3=C(C)[C@@H](OC(=O)[C@H](O)[C@@H](NC(=O)OC(C)(C)C)c4ccco4)C[C@]2(O)C3(C)C)c1	< 0.00375 µM (active)	6.32 µM (inactive)	–	3.82 µM (inactive)	0.0556 µM (active)	0.00527 µM (active)	< 0.00375 µM (active)	< 0.00375 µM (active)	< 0.00375 µM (active)	< 0.00375 µM (active)	< 0.00375 µM (active)	< 0.00375 µM (active)	< 0.00375 µM (active)	< 0.00375 µM (active)	< 0.00375 µM (active)	< 0.00375 µM (active)	< 0.00375 µM (active)	< 0.00375 µM (active)	< 0.00375 µM (active)
CCOC(=O)/C(C(=O)Nc1ccc(F)cc1)=C(/N)N1CCCC1	> 100 µM (inactive)	> 100 µM (inactive)	–	> 100 µM (inactive)	92.9 µM (inactive)	> 100 µM (inactive)	> 100 µM (inactive)	> 100 µM (inactive)	> 100 µM (inactive)	–	> 100 µM (inactive)	> 100 µM (inactive)	> 100 µM (inactive)	> 100 µM (inactive)	> 100 µM (inactive)	> 100 µM (inactive)	> 100 µM (inactive)	> 100 µM (inactive)	> 100 µM (inactive)
CN(c1ccccc1Cl)S(=O)(=O)c1ccccc1[N+](=O)[O-]	37.8 µM (inactive)	> 100 µM (inactive)	–	39.6 µM (inactive)	22.6 µM (inactive)	82 µM (inactive)	38.9 µM (inactive)	48.8 µM (inactive)	17.3 µM (inactive)	31.6 µM (inactive)	55.8 µM (inactive)	41.6 µM (inactive)	91.6 µM (inactive)	34.2 µM (inactive)	> 100 µM (inactive)	33.9 µM (inactive)	40.6 µM (inactive)	35.9 µM (inactive)	37.2 µM (inactive)
O=C(NS(=O)(=O)Nc1ccc(Cl)cc1)OCc1ccc(Cl)cc1Cl	17.7 µM (inactive)	24 µM (inactive)	24.7 µM (inactive)	29.6 µM (inactive)	28.4 µM (inactive)	16 µM (inactive)	21.4 µM (inactive)	–	41 µM (inactive)	17.5 µM (inactive)	1.02 µM (active)	36.7 µM (inactive)	21.3 µM (inactive)	16.7 µM (inactive)	14.2 µM (inactive)	14.7 µM (inactive)	35.7 µM (inactive)	19.9 µM (inactive)	23.3 µM (inactive)
Cc1c2c3ccccc3nc-2n(C)c2ccccc12	1.77 µM (inactive)	–	2.61 µM (inactive)	3.42 µM (inactive)	3.71 µM (inactive)	1.94 µM (inactive)	1.15 µM (inactive)	–	3.48 µM (inactive)	1.79 µM (inactive)	3.83 µM (inactive)	3.78 µM (inactive)	3.67 µM (inactive)	–	4.8 µM (inactive)	2.72 µM (inactive)	2.48 µM (inactive)	2.99 µM (inactive)	–
N#CCCN(CCC#N)c1ccc(/C=C2\N=C(c3ccccc3)N(NC(N)=S)C2=O)cc1	> 100 µM (inactive)	> 100 µM (inactive)	> 100 µM (inactive)	> 100 µM (inactive)	> 100 µM (inactive)	> 100 µM (inactive)	12.9 µM (inactive)	> 100 µM (inactive)	> 100 µM (inactive)	> 100 µM (inactive)	> 100 µM (inactive)	> 100 µM (inactive)	> 100 µM (inactive)	> 100 µM (inactive)	> 100 µM (inactive)	> 100 µM (inactive)	–	> 100 µM (inactive)	> 100 µM (inactive)
COc1cc(C2C3=C(COC3=O)OC(C)(C)Oc3cc4c(cc32)OCO4)cc(OC)c1O (stereo not given)	0.437 µM (active)	> 38.8 µM (inactive)	0.392 µM (active)	0.973 µM (active)	12.9 µM (inactive)	–	0.531 µM (active)	1.87 µM (inactive)	1.09 µM (active)	7.1 µM (inactive)	0.916 µM (active)	0.791 µM (active)	1.39 µM (inactive)	2.44 µM (inactive)	1.56 µM (inactive)	0.199 µM (active)	–	0.467 µM (active)	0.76 µM (active)
NC(Cc1ccc(OCc2ccccc2)cn1)C(=O)O (stereo not given)	> 100 µM (inactive)	–	–	> 100 µM (inactive)	> 100 µM (inactive)	> 100 µM (inactive)	> 100 µM (inactive)	> 100 µM (inactive)	–	> 100 µM (inactive)	> 100 µM (inactive)	> 100 µM (inactive)	> 100 µM (inactive)	> 100 µM (inactive)	> 100 µM (inactive)	> 100 µM (inactive)	–	> 100 µM (inactive)	> 100 µM (inactive)
Cc1cc(S(=O)(=O)Nc2nc(N)n(-c3ccccc3)n2)c(S)cc1Cl	> 100 µM (inactive)	> 100 µM (inactive)	–	> 100 µM (inactive)	45.1 µM (inactive)	> 100 µM (inactive)	> 100 µM (inactive)	> 100 µM (inactive)	> 100 µM (inactive)	> 100 µM (inactive)	> 100 µM (inactive)	> 100 µM (inactive)	> 100 µM (inactive)	> 100 µM (inactive)	70 µM (inactive)	> 100 µM (inactive)	> 100 µM (inactive)	86.3 µM (inactive)	> 100 µM (inactive)
N/C(=N\O)N/N=C/c1cc(I)cc(I)c1O	2.2 µM (inactive)	27.6 µM (inactive)	–	49.2 µM (inactive)	47.4 µM (inactive)	57.7 µM (inactive)	> 100 µM (inactive)	57.1 µM (inactive)	19 µM (inactive)	–	24.1 µM (inactive)	42.3 µM (inactive)	31.6 µM (inactive)	27 µM (inactive)	> 100 µM (inactive)	82.6 µM (inactive)	–	29.7 µM (inactive)	54.8 µM (inactive)
Cc1nc(C)c(Cc2ccccc2)o1	98.2 µM (inactive)	> 100 µM (inactive)	–	> 100 µM (inactive)	> 100 µM (inactive)	> 100 µM (inactive)	> 100 µM (inactive)	> 100 µM (inactive)	> 100 µM (inactive)	47.6 µM (inactive)	> 100 µM (inactive)	> 100 µM (inactive)	> 100 µM (inactive)	> 100 µM (inactive)	> 100 µM (inactive)	> 100 µM (inactive)	41.4 µM (inactive)	> 100 µM (inactive)	> 100 µM (inactive)
OC1OC(c2ccco2)C(F)(F)C(F)(F)C1(F)F (stereo not given)	> 100 µM (inactive)	43.2 µM (inactive)	38 µM (inactive)	> 100 µM (inactive)	> 100 µM (inactive)	> 100 µM (inactive)	19.9 µM (inactive)	–	> 100 µM (inactive)	59.6 µM (inactive)	71.3 µM (inactive)	> 100 µM (inactive)	> 100 µM (inactive)	82.6 µM (inactive)	18.2 µM (inactive)	> 100 µM (inactive)	–	> 100 µM (inactive)	65.6 µM (inactive)
Oc1cc2c(cc1C(c1ccc3c(c1)OCO3)N1CCN(C(c3ccc4c(c3)OCO4)c3cc4c(cc3O)OCO4)CC1)OCO2 (stereo not given)	17.1 µM (inactive)	4.36 µM (inactive)	23.2 µM (inactive)	2.83 µM (inactive)	13.7 µM (inactive)	20.2 µM (inactive)	16.7 µM (inactive)	20.5 µM (inactive)	14.4 µM (inactive)	12 µM (inactive)	18 µM (inactive)	21.7 µM (inactive)	20.3 µM (inactive)	31 µM (inactive)	11.9 µM (inactive)	–	3.46 µM (inactive)	16.7 µM (inactive)	15.7 µM (inactive)
CC(=O)C1=C(O)/C(=C\c2ccco2)OC1=O	> 10 µM (inactive)	> 10 µM (inactive)	> 10 µM (inactive)	> 10 µM (inactive)	> 10 µM (inactive)	> 10 µM (inactive)	> 10 µM (inactive)	> 10 µM (inactive)	> 10 µM (inactive)	> 10 µM (inactive)	> 10 µM (inactive)	> 10 µM (inactive)	> 10 µM (inactive)	> 10 µM (inactive)	> 10 µM (inactive)	–	> 10 µM (inactive)	> 10 µM (inactive)	> 10 µM (inactive)
